Measured values published in ChEMBL document CHEMBL5131549, “Discovery of a High Affinity Adenosine A1/A3 Receptor Antagonist with a Novel 7-Amino-pyrazolo[3,4-d]pyridazine Scaffold” (ACS Med Chem Lett, 2022).

What was measured:
[1] = Cytotoxicity against human WI-38 cells assessed as cell viability incubated for 72 to 96 hrs by MTT assay; type: toxicity, cell-based
HCT-116 = test: cells; conditions: Homo sapiens
PC-3 = test: cells; conditions: Homo sapiens

SMILES	IC50 [1]	IC50 (HCT-116)	IC50 (PC-3)
O=C(Cc1ccccc1)Nc1nc2ccc(Cl)cc2c2nc(-c3ccco3)nn12	> 10 µM		
CCNC(=O)[C@H]1O[C@@H](n2cnc3c(N)ncnc32)[C@H](O)[C@@H]1O [NECA]	> 10 µM	> 10 µM	> 10 µM
